Assay results as given in US10092537B2, “Use for PAI-1 inhibitor” (RENASCIENCE CO., LTD., priority 2013, dated 2018).
Where a name gives a salt, the structure may show the parent alone.

What follows are compounds tested against human PAI-1 (Homo sapiens, UniProt P05121) (assay: Measurement of PAI-1 inhibitory activity of compound group 1 (t-PA, Spectrozyme t-PA chromogenic substrate)). Details: read-out: PAI-1 activity %.
Chain of human PAI-1 (P05121 24-402): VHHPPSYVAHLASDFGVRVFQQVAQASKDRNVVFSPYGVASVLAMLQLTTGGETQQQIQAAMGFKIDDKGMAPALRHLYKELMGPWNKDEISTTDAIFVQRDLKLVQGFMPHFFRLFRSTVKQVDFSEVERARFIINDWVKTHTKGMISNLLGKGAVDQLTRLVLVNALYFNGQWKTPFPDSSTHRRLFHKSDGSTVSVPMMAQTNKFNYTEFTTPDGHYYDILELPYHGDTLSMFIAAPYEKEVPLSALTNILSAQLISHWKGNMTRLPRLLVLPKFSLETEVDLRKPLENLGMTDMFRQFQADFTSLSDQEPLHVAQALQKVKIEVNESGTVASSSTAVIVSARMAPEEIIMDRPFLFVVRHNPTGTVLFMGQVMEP
Experimental: Subsequently, human-derived tissue plasminogen activator (t-PA) (manufactured by American Diagnostica, Inc. (USA); the same applies hereinafter) adjusted to 0.05 pmol/μL was added thereto, and the mixture was further incubated at 37° C. for 60 minutes. Then, 0.25 mM of Spectrozyme t-PA synthetic substrate (manufactured by American Diagnostica, Inc. (USA); the same applies hereinafter), which is a chromogenic substrate, was added. The final mixture contained 50 mM Tris-HCl (pH 8), 150 mM NaCl, 1% DMSO, 0.1% PEG-6000, 0.2 mM CHAPS, 5 nM PAI-1, 2 nM t-PA, 0.2 mM Spectrozyme t-PA synthetic substrate, and each compound (10 μM or 2.5 μM).
Free radical p-nitroaniline removed from the chromogenic substrate (Spectrozyme t-PA) by t-PA action was measured using a spectrophotometer at an absorbance of 405 nm at 20-minute intervals, for 120 minutes.
Compound Cc1cc(C)cc(-c2ccc(OCC(=O)Nc3ccc(Cl)cc3C(=O)O)cc2)c1 [Example 50, 5-chloro-2-({[(3′,5′-dimethylbiphenyl-4-yl)oxy]acetyl}amino)benzoic acid] has an activity at 2.5 µM of 58.9% and an activity at 10 µM of 0.1%. Work on CC(C)(C)c1ccc(OCC(=O)Nc2ccc(Cl)cc2C(=O)O)cc1 [Example 18, 2-{[(4-tert-butylphenoxy)acetyl]amino}-5-chlorobenzoic acid] yielded an activity at 2.5 µM of 81.4% and an activity at 10 µM of 16.1%. With O=C(COc1cccc(C2=CCCCC2)c1)Nc1ccc(Cl)cc1C(=O)O [Example 25, 5-chloro-2-({[3-(cyclohex-1-en-1-yl)phenoxy]acetyl}amino)benzoic acid] the activity at 2.5 µM was 85.8% and the activity at 10 µM was 0%. For O=C(CN1CCN(C(c2ccccc2)c2ccccc2)CC1)Nc1ccc(Cl)cc1C(=O)O [Example 77, 5-chloro-2-({[4-(diphenylmethyl)piperazin-1-yl]acetyl}amino)benzoic acid], the activity at 2.5 µM was 89.6% and the activity at 10 µM was 19.3%. O=C(Cn1ccc2cc(-c3ccccc3)ccc21)Nc1ccc(Cl)cc1C(=O)O [Example 51, 5-chloro-2-{[(5-phenyl-1H-indol-1-yl)acetyl]amino}benzoic acid] showed an activity at 2.5 µM of 37.8% and an activity at 10 µM of 1.7%. With O=C(COc1ccc(-c2ccco2)cc1)Nc1ccc(Cl)cc1C(=O)O [Example 54, 5-chloro-2-({[4-(furan-2-yl)phenoxy]acetyl}amino)benzoic acid] the activity at 2.5 µM was 94.4% and the activity at 10 µM was 15.5%. Compound Cc1cc(C)cc(-c2ccc(NC(=O)COc3cccc(-c4ccoc4)c3)c(C(=O)O)c2)c1 [Example 28, 4-({[3-(furan-3-yl)phenoxy]acetyl}amino)-3′,5′-dimethylbiphenyl-3-carboxylic acid] has an activity at 2.5 µM of 33.6% and an activity at 10 µM of 0.5%. Compound O=C(Nc1ccc(Cl)cc1C(=O)O)c1ccc(OCC23CC4CC(CC(C4)C2)C3)cc1 [Example 52, 2-({[4-(adamantan-1-ylmethoxy)phenyl]carbonyl}amino)-5-chlorobenzoic acid] has an activity at 2.5 µM of 7.2% and an activity at 10 µM of 5.1%. O=C(/C=C(/Cl)C1CCCCC1)Nc1ccc(Cl)cc1C(=O)O [Example 91, 5-chloro-2-{[(2E)-3-chloro-3-cyclohexylprop-2-enoyl]amino}benzoic acid] was tested, and the activity at 2.5 µM was 96.9% and the activity at 10 µM was 16.7%. In the case of O=C(COc1ccccc1C1CCCCC1)Nc1ccc(Cl)cc1C(=O)O [Example 17, 5-chloro-2-{[(2-cyclohexylphenoxy)acetyl]amino}benzoic acid], the activity at 2.5 µM was 52.8% and the activity at 10 µM was 0.8%. O=C(Nc1ccc(C#CC2CCCCC2)cc1C(=O)O)c1ccc(C2CCCCC2)cc1 [Example 92, 5-(cyclohexylethynyl)-2-{[(4-cyclohexylphenyl)carbonyl]amino}benzoic acid] showed an activity at 2.5 µM of 0% and an activity at 10 µM of 0.4%. Work on O=C(Nc1ccc(Cl)cc1C(=O)O)c1cccc(OCc2ccc3ccccc3n2)c1 [Example 99, sodium 5-chloro-2-({[3-(quinolin-2-ylmethoxy)phenyl]carbonyl}amino)benzoate] yielded an activity at 2.5 µM of 87.8% and an activity at 10 µM of 0.3%. For Cc1ccc(C23CC4CC(CC(C(=O)Nc5ccc(Cl)cc5C(=O)O)(C4)C2)C3)cc1 [Example 86, 5-chloro-2-({[3-(4-methylphenyl)adamantan-1-yl]carbonyl}amino)benzoic acid], the activity at 2.5 µM was 63.5% and the activity at 10 µM was 1.4%. In the case of O=C(COc1cccc(-c2ccco2)c1)Nc1ccc(Cl)cc1C(=O)O [Example 53, 5-chloro-2-({[3-(furan-2-yl)phenoxy]acetyl}amino)benzoic acid], the activity at 2.5 µM was 95.3% and the activity at 10 µM was 21.6%. In the case of Cn1c(C(=O)Nc2ccc(Cl)cc2C(=O)O)cc2cc(Br)ccc21 [Example 23, 2-{[(5-bromo-1-methyl-1H-indol-2-yl)carbonyl]amino}-5-chlorobenzoic acid], the activity at 2.5 µM was 97.3% and the activity at 10 µM was 1.8%. O=C(/C=C/c1cccc(-c2cccnc2)c1)Nc1ccc(Cl)cc1C(=O)O [Example 103, sodium 5-chloro-2-({(2E)-3-[3-(pyridin-3-yl)phenyl]prop-2-enoyl}amino)benzoate] showed an activity at 2.5 µM of 92.3% and an activity at 10 µM of 34.2%. For O=C(Nc1ccc(Cl)cc1C(=O)O)C(=O)c1c[nH]c2ccc(OCc3ccccc3)cc12 [Example 57, 2-({[5-(benzyloxy)-1H-indol-3-yl](oxo)acetyl}amino)-5-chlorobenzoic acid], the activity at 2.5 µM was 38.6% and the activity at 10 µM was 0.2%. O=C(O)c1cc(Cl)ccc1NC(=O)c1cc(-c2ccccc2)nc2ccccc12 [Example 107, sodium 5-chloro-2-{[(2-phenylquinolin-4-yl)carbonyl]amino}benzoate] was tested, and the activity at 2.5 µM was 100% and the activity at 10 µM was 6.7%. In the case of O=C(Nc1ccc(Cl)cc1C(=O)O)c1cccc(C23CC4CC(CC(C4)C2)C3)c1 [Example 62, 2-({[3-(adamantan-1-yl)phenyl]carbonyl}amino)-5-chlorobenzoic acid], the activity at 2.5 µM was 29.1% and the activity at 10 µM was 0.6%. Compound O=C(Nc1ccc(Cl)cc1C(=O)O)c1cccc(-c2cccc3ccccc23)c1 [Example 58, 5-chloro-2-({[3-(naphthalen-1-yl)phenyl]carbonyl}amino)benzoic acid] has an activity at 2.5 µM of 0% and an activity at 10 µM of 0%. Work on O=C(Nc1ccc(C23CC4CC(CC(C4)C2)C3)cc1)C(=O)Nc1ccc(Cl)cc1C(=O)O [Example 106, sodium 2-[({[4-(adamantan-1-yl)phenyl]amino}(oxo)acetyl)amino]-5-chlorobenzoate] yielded an activity at 2.5 µM of 88.4% and an activity at 10 µM of 26.3%. With Cc1ccc(-c2ccc(OCC(=O)Nc3ccc(Cl)cc3C(=O)O)cc2)cc1 [Example 49, 5-chloro-2-({[(4′-methylbiphenyl-4-yl)oxy]acetyl}amino)benzoic acid] the activity at 2.5 µM was 82.1% and the activity at 10 µM was 1.1%. O=C(O)c1cc(Cl)ccc1NC(=O)C1CCCC2(CCCCC2)C1 (stereo not drawn) [Example 85, 5-chloro-2-[(spiro[5.5]undec-2-ylcarbonyl)amino]benzoic acid] was tested, and the activity at 2.5 µM was 97.5% and the activity at 10 µM was 11%. With Cc1sc(NC(=O)c2ccc(C3CCCCC3)cc2)c(C(=O)O)c1-c1ccccc1 [Example 74, 2-{[(4-cyclohexylphenyl)carbonyl]amino}-5-methyl-4-phenylthiophene-3-carboxylic acid] the activity at 2.5 µM was 8.6% and the activity at 10 µM was 0.2%. O=C(Nc1ccc(Cl)cc1C(=O)O)c1ccc(C2=CCOCC2)cc1 [Example 34, 5-chloro-2-({[4-(3,6-dihydro-2H-pyran-4-yl)phenyl]carbonyl}amino)benzoic acid] was tested, and the activity at 2.5 µM was 97.1% and the activity at 10 µM was 45.1%. CC(C)(Oc1cccc(-c2ccoc2)c1)C(=O)Nc1ccc(Cl)cc1C(=O)O [Example 44, 5-chloro-2-({2-[3-(furan-3-yl)phenoxy]-2-methylpropanoyl}amino)benzoic acid] was tested, and the activity at 2.5 µM was 97.8% and the activity at 10 µM was 20.4%. O=C(Nc1ccc(Cl)cc1C(=O)O)c1ccc(-c2ccc(F)cc2)s1 [Example 104, 5-chloro-2-({[5-(4-fluorophenyl)thiophen-2-yl]carbonyl}amino)benzoic acid] gave an activity at 2.5 µM of 84.8% and an activity at 10 µM of 0.9%. O=C(COc1cccc(-c2ccoc2)c1)Nc1ccc(Br)cc1C(=O)O [Example 15, 5-bromo-2-({[3-(furan-3-yl)phenoxy]acetyl}amino)benzoic acid] was tested, and the activity at 2.5 µM was 87.3% and the activity at 10 µM was 3%. In the case of Cc1ccc(-c2cccc(C(=O)Nc3ccc(Cl)cc3C(=O)O)c2)cc1 [Example 32, 5-chloro-2-{[(4′-methylbiphenyl-3-yl)carbonyl]amino}benzoic acid], the activity at 2.5 µM was 94.4% and the activity at 10 µM was 1.7%. O=C(/C=C/c1cccc(-c2cccc3cccnc23)c1)Nc1ccc(Cl)cc1C(=O)O [Example 101, sodium 5-chloro-2-({(2E)-3-[3-(quinolin-8-yl)phenyl]prop-2-enoyl}amino)benzoate] showed an activity at 2.5 µM of 24.7% and an activity at 10 µM of 0.2%. In the case of O=C(/C=C/c1cccc(-c2ccccc2)c1)Nc1ccc(Cl)cc1C(=O)O [Example 89, 2-{[(2E)-3-(biphenyl-3-yl)prop-2-enoyl]amino}-5-chlorobenzoic acid], the activity at 2.5 µM was 60.7% and the activity at 10 µM was 0.1%. With COc1ccccc1-c1cccc(OCC(=O)Nc2ccc(Cl)cc2C(=O)O)c1 [Example 61, 5-chloro-2-({[(2′-methoxybiphenyl-3-yl)oxy]acetyl}amino)benzoic acid] the activity at 2.5 µM was 92.4% and the activity at 10 µM was 38.9%. O=C(Nc1ccc(Cl)cc1C(=O)O)c1ccc(CC23CC4CC(CC(C4)C2)C3)cc1 [Example 96, 2-({[4-(adamantan-1-ylmethyl)phenyl]carbonyl}amino)-5-chlorobenzoic acid] was tested, and the activity at 2.5 µM was 23.9% and the activity at 10 µM was 5%. Compound O=C(Nc1ccc(Cl)cc1C(=O)O)c1ccc(N2CCCC2)cc1 [Example 83, 5-chloro-2-({[4-(pyrrolidin-1-yl)phenyl]carbonyl}amino)benzoic acid hydrochloride] has an activity at 2.5 µM of 99.1% and an activity at 10 µM of 26.6%. Work on O=C(Nc1ccc(Cl)cc1C(=O)O)c1ccc(-c2ccccc2)o1 [Example 105, 5-chloro-2-{[(5-phenylfuran-2-yl)carbonyl]amino}benzoic acid] yielded an activity at 2.5 µM of 89.9% and an activity at 10 µM of 23.5%. CC(C)(C)c1cccc(OCC(=O)Nc2ccc(Cl)cc2C(=O)O)c1 [Example 16, 2-{[(3-tert-butylphenoxy)acetyl]amino}-5-chlorobenzoic acid] was tested, and the activity at 2.5 µM was 77.4% and the activity at 10 µM was 21.9%. O=C(COc1cccc(C2CCCCC2)c1)Nc1ccc(Cl)cc1C(=O)O [Example 26, 5-chloro-2-{[(3-cyclohexylphenoxy)acetyl]amino}benzoic acid] gave an activity at 2.5 µM of 98% and an activity at 10 µM of 0.6%. O=C(O)c1cc(Cl)ccc1NC(=O)C(c1ccccc1)c1ccccc1 [Known compound (6), 5-chloro-2-[(diphenylacetyl)amino] benzoic acid, reference compound] showed an activity at 2.5 µM of 85% and an activity at 10 µM of 37.4%. Compound O=C(Nc1ccc(Cl)cc1C(=O)O)c1cc(C(F)(F)F)cc(C(F)(F)F)c1 [Example 43, 2-({[3,5-bis(trifluoro-methyl)phenyl)carbonyl}amino)-5-chlorobenzoic acid] has an activity at 2.5 µM of 98.4% and an activity at 10 µM of 14.1%.
